Consider nine compounds from ChEMBL document CHEMBL5338760, “Ψ and χ Angle Constrains at the C-Terminus Trp Position of the Melanotropin Tetrapeptide Ac-His-d-Phe-Arg-Trp-NH2 Lead to Potent and Selective Agonists at hMC1R and hMC4R” (J Med Chem, 2023).

Some results are limits rather than exact numbers.

Experiment [1] has as its target T1, Melanocyte-stimulating hormone receptor (Homo sapiens, UniProt Q01726). Briefly: Displacement of [I125] NDP-alpha-MSH from human MC1R stably overexpressing in HEK293 cells in presence of [I125] labeled NDP-alpha-MSH treated for 40 mins measured by microbeta 2 microplate counter analysis. It is filed as cell-based.
Target sequence in this assay (Q01726 whole entry): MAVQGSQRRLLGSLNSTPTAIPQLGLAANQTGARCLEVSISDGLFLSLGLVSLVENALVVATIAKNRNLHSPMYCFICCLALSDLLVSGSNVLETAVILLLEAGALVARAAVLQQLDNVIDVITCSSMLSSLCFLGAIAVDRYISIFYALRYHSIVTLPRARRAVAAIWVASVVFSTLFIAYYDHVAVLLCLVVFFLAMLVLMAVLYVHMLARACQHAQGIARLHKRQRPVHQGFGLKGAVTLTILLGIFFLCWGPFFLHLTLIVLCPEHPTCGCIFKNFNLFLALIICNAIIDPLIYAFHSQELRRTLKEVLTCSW
Experiment [2] deals with T1, Melanocyte-stimulating hormone receptor. Description: Agonist activity at human MC1R stably overexpressing in HEK293 cells assessed as intracellular acumulation of cAMP level incubated for 30 mins measured by microbeta 2 microplate counter analysis. It is filed as functional, cell-based. In general terms: cAMP levels reflect the balance of adenylyl cyclase and phosphodiesterase activity.
Target sequence in this assay (Q01726 whole entry): as above

Experiment [3] deals with T2, Melanocortin receptor 3 (Homo sapiens, UniProt P41968). Briefly: Displacement of [I125] NDP-alpha-MSH from human MC3R stably overexpressing in HEK293 cells in presence of [I125] labeled NDP-alpha-MSH treated for 40 mins measured by microbeta 2 microplate counter analysis. It is filed as cell-based.
T2 sequence (P41968 whole entry): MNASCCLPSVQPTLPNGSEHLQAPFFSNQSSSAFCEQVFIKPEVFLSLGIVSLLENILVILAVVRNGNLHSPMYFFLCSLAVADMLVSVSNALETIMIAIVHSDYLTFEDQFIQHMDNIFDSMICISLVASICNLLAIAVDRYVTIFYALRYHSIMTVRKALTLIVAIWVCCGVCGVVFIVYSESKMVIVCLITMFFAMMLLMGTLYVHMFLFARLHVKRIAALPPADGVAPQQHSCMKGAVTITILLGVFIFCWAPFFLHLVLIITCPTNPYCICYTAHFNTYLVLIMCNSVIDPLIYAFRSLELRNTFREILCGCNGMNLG
In experiment [4] the target is T3, Melanocortin receptor 5 (Homo sapiens, UniProt P33032). Description: Displacement of [I125] NDP-alpha-MSH from human MC5R stably overexpressing in HEK293 cells in presence of [I125] labeled NDP-alpha-MSH treated at 10 uM for 40 mins measured by microbeta 2 microplate counter analysis relative to control. It is filed as cell-based.
T3 sequence (P33032 whole entry): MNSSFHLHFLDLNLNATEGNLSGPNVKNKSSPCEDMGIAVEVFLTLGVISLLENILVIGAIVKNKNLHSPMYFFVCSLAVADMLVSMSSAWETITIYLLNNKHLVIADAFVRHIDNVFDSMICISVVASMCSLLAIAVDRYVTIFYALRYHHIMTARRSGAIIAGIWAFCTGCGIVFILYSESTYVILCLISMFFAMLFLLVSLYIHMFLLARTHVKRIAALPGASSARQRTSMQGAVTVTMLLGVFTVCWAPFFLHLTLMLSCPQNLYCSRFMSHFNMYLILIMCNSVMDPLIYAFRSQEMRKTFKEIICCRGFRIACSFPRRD
Experiment [5] concerns the target T3, Melanocortin receptor 5. Briefly: Displacement of [I125] NDP-alpha-MSH from human MC5R stably overexpressing in HEK293 cells in presence of [I125] labeled NDP-alpha-MSH treated for 40 mins measured by microbeta 2 microplate counter analysis. It is filed as cell-based.
Experiment [6] deals with T3, Melanocortin receptor 5. Description: Agonist activity at human MC5R stably overexpressing in HEK293 cells assessed as intracellular acumulation of cAMP level incubated for 30 mins measured by microbeta 2 microplate counter analysis. It is filed as functional, cell-based.
The target of experiment [7] is T2, Melanocortin receptor 3. Briefly: Displacement of [I125] NDP-alpha-MSH from human MC3R stably overexpressing in HEK293 cells in presence of [I125] labeled NDP-alpha-MSH treated at 10 uM for 40 mins measured by microbeta 2 microplate counter analysis relative to control. The note with it: filed as agonist. It is filed as cell-based.
The target of experiment [8] is T1, Melanocyte-stimulating hormone receptor. Description: Displacement of [I125] NDP-alpha-MSH from human MC1R stably overexpressing in HEK293 cells in presence of [I125] labeled NDP-alpha-MSH treated at 10 uM for 40 mins measured by microbeta 2 microplate counter analysis relative to control. It is filed as cell-based.
Target sequence in this assay (Q01726 whole entry, looked up): as the sequence (Q01726 whole entry) above
Experiment [9] deals with T4, Melanocortin receptor 4 (Homo sapiens, UniProt P32245). Briefly: Agonist activity at human MC4R stably overexpressing in HEK293 cells assessed as intracellular acumulation of cAMP level incubated for 30 mins measured by microbeta 2 microplate counter analysis. It is filed as functional, cell-based.
T4 sequence (P32245 whole entry): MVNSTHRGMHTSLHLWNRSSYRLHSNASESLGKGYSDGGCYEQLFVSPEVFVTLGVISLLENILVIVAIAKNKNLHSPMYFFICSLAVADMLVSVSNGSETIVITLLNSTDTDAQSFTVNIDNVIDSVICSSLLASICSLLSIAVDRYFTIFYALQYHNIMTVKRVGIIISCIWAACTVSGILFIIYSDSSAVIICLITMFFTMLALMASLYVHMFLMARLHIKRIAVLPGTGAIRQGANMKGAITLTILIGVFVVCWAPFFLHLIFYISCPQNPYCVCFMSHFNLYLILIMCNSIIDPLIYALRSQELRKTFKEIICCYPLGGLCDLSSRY
Experiment [10] concerns the target T1, Melanocyte-stimulating hormone receptor. Description: Agonist activity at human MC1R stably overexpressing in HEK293 cells assessed as intracellular acumulation of cAMP level incubated at 10 uM for 30 mins measured by microbeta 2 microplate counter analysis relative to MT-II. It is filed as functional, cell-based. The note with it: filed as agonist.
Target sequence in this assay (Q01726 whole entry, looked up): as the sequence (Q01726 whole entry) above
Experiment [11] concerns the target T2, Melanocortin receptor 3. Briefly: Agonist activity at human MC3R stably overexpressing in HEK293 cells assessed as intracellular acumulation of cAMP level incubated for 30 mins measured by microbeta 2 microplate counter analysis. It is filed as functional, cell-based.
For experiment [12], the target named is T2, Melanocortin receptor 3. Briefly: Agonist activity at human MC3R stably overexpressing in HEK293 cells assessed as intracellular acumulation of cAMP level incubated at 10 uM for 30 mins measured by microbeta 2 microplate counter analysis relative to MT-II. It is filed as functional, cell-based. As to conditions: filed as agonist; call rule not given here.
Experiment [13] has as its target T4, Melanocortin receptor 4. Briefly: Displacement of [I125] NDP-alpha-MSH from human MC4R stably overexpressing in HEK293 cells in presence of [I125] labeled NDP-alpha-MSH treated for 40 mins measured by microbeta 2 microplate counter analysis. It is filed as cell-based.
Experiment [14] deals with T3, Melanocortin receptor 5. Briefly: Agonist activity at human MC5R stably overexpressing in HEK293 cells assessed as intracellular acumulation of cAMP level incubated at 10 uM for 30 mins measured by microbeta 2 microplate counter analysis relative to MT-II. It is filed as functional, cell-based. The note with it: filed as agonist.
The target of experiment [15] is T4, Melanocortin receptor 4. Description: Displacement of [I125] NDP-alpha-MSH from human MC4R stably overexpressing in HEK293 cells in presence of [I125] labeled NDP-alpha-MSH treated at 10 uM for 40 mins measured by microbeta 2 microplate counter analysis. It is filed as cell-based.
The target in experiment [16] is T2, Melanocortin receptor 3. Briefly: Displacement of [I125] NDP-alpha-MSH from human MC3R stably overexpressing in HEK293 cells in presence of [I125] labeled NDP-alpha-MSH treated at 10 uM for 40 mins measured by microbeta 2 microplate counter analysis. It is filed as cell-based.
Experiment [17] deals with T1, Melanocyte-stimulating hormone receptor. Description: Displacement of [I125] NDP-alpha-MSH from human MC1R stably overexpressing in HEK293 cells in presence of [I125] labeled NDP-alpha-MSH treated at 10 uM for 40 mins measured by microbeta 2 microplate counter analysis. It is filed as cell-based.
Target sequence in this assay (Q01726 whole entry): as above
In experiment [18] the target is T3, Melanocortin receptor 5. Briefly: Displacement of [I125] NDP-alpha-MSH from human MC5R stably overexpressing in HEK293 cells in presence of [I125] labeled NDP-alpha-MSH treated at 10 uM for 40 mins measured by microbeta 2 microplate counter analysis. It is filed as cell-based.

Regarding `CCCC[C@H](NC(C)=N)C(=O)N[C@@H]1NCCCC[C@@H](C(N)=O)NC(=O)[C@H](Cc2c[nH]c3ccccc23)NC(=O)[C@H](CCCNC(=N)N)NC(=O)[C@H](Cc2ccccc2)NC(=O)[C@H](Cc2cnc[nH]2)NC1=O`, the figures for the IC50 (in [1]; on Melanocortin receptor 3 [3]; on Melanocortin receptor 5 [5]) were 1 nM, 2 nM and 4 nM, respectively. Further, the EC50 (as a rule, the concentration that produces a half-maximal response) was 1 nM in experiment [2] (read-out: EC50), 6 nM on Melanocortin receptor 5 [6] (read-out: EC50) and 2 nM on Melanocortin receptor 4 [9] (read-out: EC50). The Activity (at Melanocortin receptor 5 [4] (filed as agonist); at Melanocortin receptor 3 [7]; in experiment [8] (filed as agonist)) was 100% throughout.
On to `CC(=O)N[C@@H](Cc1c[nH]cn1)C(=O)N[C@H](Cc1ccccc1)C(=O)N[C@@H](CCCNC(=N)N)C(=O)N[C@H]1Cc2c([nH]c3ccccc23)CNC1=O`, for which the Emax (commonly the greatest response seen or fitted, relative to the assay's reference) in [10] was 100%; on Melanocortin receptor 3 [12], 66%; on Melanocortin receptor 5 [14], 61%. For the same compound, the IC50 (commonly the concentration at which inhibition is half-maximal) in experiment [1] is 34 nM; at Melanocortin receptor 4 [13] it was 166 nM; at Melanocortin receptor 3 [3], 165 nM; on Melanocortin receptor 5 [5] it was over 1000 nM. The EC50 came to 166 nM at Melanocortin receptor 3 [11] (read-out: EC50), 11.2 nM in [2] (read-out: EC50), 165 nM at Melanocortin receptor 5 [6] (read-out: EC50) and 171 nM at Melanocortin receptor 4 [9] (read-out: EC50). The Activity on Melanocortin receptor 5 [4] is 39%; at Melanocortin receptor 3 [7] it was 61%; in [8] (filed as agonist) it was 83%.
With `CC(=O)N[C@@H](Cc1c[nH]cn1)C(=O)N[C@H](Cc1ccccc1)C(=O)N[C@@H](CCCNC(=N)N)C(=O)N[C@H]1Cn2nncc2CNC1=O`, the maximum response (Emax) in experiment [10] stood at 96%. Besides, the IC50 is 9.6 nM in experiment [1], over 1000 nM at Melanocortin receptor 5 [5], “Not Active” at Melanocortin receptor 4 [15] and “Not Active” at Melanocortin receptor 3 [16]. The EC50 was over 1000 nM at Melanocortin receptor 3 [11] (read-out: EC50), 136 nM in experiment [2] (read-out: EC50), “Not Active” on Melanocortin receptor 5 [6] (hek293) and “Not Active” on Melanocortin receptor 4 [9] (hek293). The Activity in experiment [8] came to 21%.
For `CCCC[C@H](NC(=O)[C@@H](Cc1ccccc1)NC(=O)[C@H](Cc1c[nH]cn1)NC(C)=O)C(=O)N[C@H]1Cc2ccccc2CNC1=O`, the concentration giving a half-maximal response (EC50) entry (at Melanocortin receptor 3 [11] (hek293); in experiment [2] (hek293); at Melanocortin receptor 5 [6] (hek293); on Melanocortin receptor 4 [9] (hek293)) was “Not Active” throughout. Moreover, the IC50 entry (in [17]; on Melanocortin receptor 5 [18]; at Melanocortin receptor 4 [15]; at Melanocortin receptor 3 [16]) was “Not Active” throughout.
As for `CC(=O)N[C@@H](Cc1cnc[nH]1)C(=O)N[C@H](Cc1ccccc1)C(=O)N[C@@H](CCCNC(=N)N)C(=O)N[C@@H](Cc1c[nH]c2ccccc12)C(N)=O`, the Emax in [10] was found to be 100%; at Melanocortin receptor 3 [12] it was 100%; on Melanocortin receptor 5 [14], 63%. For the same compound, the Activity on Melanocortin receptor 5 [4] (filed as agonist) was 100%.
As to `CC(=O)N[C@@H](Cc1c[nH]cn1)C(=O)N[C@H](Cc1ccccc1)C(=O)N[C@@H](CCCNC(=N)N)C(=O)N[C@H]1Cc2ccccc2CNC1=O`, the EC50 result (at Melanocortin receptor 3 [11] (hek293); in [2] (hek293); at Melanocortin receptor 5 [6] (hek293); on Melanocortin receptor 4 [9] (hek293)) was “Not Active” in each case. Moreover, the IC50 result (in experiment [17]; on Melanocortin receptor 5 [18]; on Melanocortin receptor 4 [15]; at Melanocortin receptor 3 [16]) was “Not Active” each time.
`CC(=O)N[C@@H](Cc1c[nH]cn1)C(=O)N[C@H](Cc1ccc(C(F)(F)F)cc1)C(=O)N[C@@H](CCCNC(=N)N)C(=O)N[C@H]1Cc2c([nH]c3ccccc23)CNC1=O`: the Emax in [10] worked out at 100%. The IC50 was 81 nM in [1], 2.5 nM on Melanocortin receptor 4 [13], over 1000 nM at Melanocortin receptor 3 [3] and 40 nM at Melanocortin receptor 5 [5]. Moreover, the EC50 entry is “Not Active” on Melanocortin receptor 3 [11] (hek293), 37 nM in experiment [2] (read-out: EC50), “Not Active” at Melanocortin receptor 5 [6] (hek293) and 4.1 nM on Melanocortin receptor 4 [9] (read-out: EC50). Also, the Activity in experiment [8] amounted to 35%.
In the case of `CCCC[C@H](NC(=O)[C@@H](Cc1ccccc1)NC(=O)[C@H](Cc1c[nH]cn1)NC(C)=O)C(=O)N[C@H]1Cc2c([nH]c3ccccc23)CNC1=O`, the concentration for a half-maximal effect (EC50) at Melanocortin receptor 3 [11] (read-out: EC50) was over 1000 nM; in [2] (read-out: EC50), over 1000 nM; at Melanocortin receptor 5 [6] (hek293), “Not Active”; on Melanocortin receptor 4 [9] (read-out: EC50) it was over 1000 nM. The IC50 entry (in experiment [17]; on Melanocortin receptor 5 [18]; at Melanocortin receptor 4 [15]; on Melanocortin receptor 3 [16]) was “Not Active” each time.
For the compound `CCCC[C@H](NC(=O)[C@@H](Cc1ccccc1)NC(=O)[C@H](Cc1c[nH]cn1)NC(C)=O)C(=O)N[C@H]1Cn2nncc2CNC1=O`, the EC50 entry (at Melanocortin receptor 3 [11] (hek293); in experiment [2] (hek293); on Melanocortin receptor 5 [6] (hek293); at Melanocortin receptor 4 [9] (hek293)) was “Not Active” each time. In addition, the IC50 entry (in experiment [17]; at Melanocortin receptor 5 [18]; at Melanocortin receptor 4 [15]; on Melanocortin receptor 3 [16]) was “Not Active” each time.
